What was measured:
rhinovirus [1] = assay: Intranasal Administration-Simulation in vitro (plaque inhibition, compound on petri dish lid); assay type: cell-based; settings: 1 μg in ethanol applied to petri dish lids, ethanol evaporated; cell sheet covered with agarose gel
Description: Activity may be detected by the plaque inhibition (PI) test and measured by the plaque reduction (PR) test. Both assays involve the formation of a monolayer cell culture in a petri dish followed by infection with a virus suspension, and then overlaying the culture with nutrient agarose in the form of a gel. This gel ensures that there is no spread of virus throughout the culture and thus areas of localised cell destruction or plaques are formed. In the plaque inhibition test a filter paper disc which holds 0.01 ml when impregnated with a solution of compound is placed on top of the agarose gel. The compound may then diffuse throughout the gel so that its greatest concentration will be around the disc and its lowest concentration towards the periphery of the petri dish. The efficacy of the compound may be detected by observing the zone of inhibition of plaque formation. Petri dishes were prepared, as for the plaque inhibition test and the confluent sheet of cells was covered with a layer of agarose gel. The compound, 2-(3-pyridyl)chroman (1 μg) was dissolved in ethanol, and applied to the lids of the petri dishes. When the ethanol had evaporated, leaving the compound spread over the inside of the lids, these were replaced on the petri dishes.

rhinovirus [2] = assay: plaque reduction (PR) test; assay type: cell-based; settings: Enterovirus; 50% of the effective dose estimated from dose response curve; plaque numbers as percentages of a control; monolayer cell culture, compound in nutrient agarose overlay; read-out: PR(ED50)
Procedure: Activity may be detected by the plaque inhibition (PI) test and measured by the plaque reduction (PR) test. Both assays involve the formation of a monolayer cell culture in a petri dish followed by infection with a virus suspension, and then overlaying the culture with nutrient agarose in the form of a gel. This gel ensures that there is no spread of virus throughout the culture and thus areas of localised cell destruction or plaques are formed. Detectable activity is measured with the plaque reduction assay. A range of concentrations of compound of known molarity are incorporated in the nutrient agarose overlay. Plaque suppression is proportional to compound concentration. Plaque numbers are expressed as percentages of a control, and a dose response curve may be drawn. From this curve 50% of the effective dose (ED50) may be estimated.

Row | EC50 (rhinovirus [2]) [nM] | SMILES | inhibition of plaque formulation (rhinovirus [1])
1 | 390 | c1cncc(C2CCc3ccccc3O2)c1 (stereo not shown) [2-(3-pyridyl)chroman] | total inhibition
2 | 42 | Clc1ccc2c(c1)CCC(c1cccnc1)O2 (stereo not shown) [6-chloro-2-(3-pyridyl)chroman] | –
3 | 1100 | [O-][n+]1cccc(C2CCc3ccccc3O2)c1 (racemic) [2-(3-pyridyl)chroman N--oxide, 2-(3-pyridyl)chroman N-oxide] | –

Reference: patent US4563468A, “Chemotherapeutic agents” (Burroughs Wellcome Co., priority 1979, dated 1986)
